# Laboratory results published in PMC5218480 (PLoS ONE, 2017).
# Test system: MV-4-11 cells
# Experiment: Gene expression microarray analysis (Affymetrix PrimeView) and GSEA
# Format: cell-based, human
# Set-up: RFU PODN (11730768_x_at) / Fold change /veh PODN (11730768_x_at) / RFU LINC00158 (11744669_a_at) / Fold change /veh LINC00158 (11744669_a_at) / RFU DUSP10 (11751237_a_at) / Fold change /veh DUSP10 (11751237_a_at) / RFU ID3 (11757404_x_at) / Fold change /veh ID3 (11757404_x_at) / RFU PLEKHG5 (11737974_s_at) / Fold change /veh PLEKHG5 (11737974_s_at) / RFU LRRC4B (11730491_at) / Fold change /veh LRRC4B (11730491_at) / RFU GIMAP4 (11747438_a_at) / Fold change /veh GIMAP4 (11747438_a_at) / RFU KRT8 (11758183_x_at) / Fold change /veh KRT8 (11758183_x_at) / RFU CNN1 (11734310_a_at) / Fold change /veh CNN1 (11734310_a_at) / RFU VPS37D (11726825_at) / Fold change /veh VPS37D (11726825_at) / RFU C10orf10 (11716522_x_at) / Fold change /veh C10orf10 (11716522_x_at) / RFU KIR2DL2 /// KIR2DL4 /// KIR2DL5A /// KIR2DL5B /// KIR2DS1 /// KIR2DS2 /// KIR2DS3 /// KIR2DS4 /// KIR3DL3 /// KIR3DL3 /// KIR3DS1 (11738374_at) / Fold change /veh KIR2DL2 /// KIR2DL4 /// KIR2DL5A /// KIR2DL5B /// KIR2DS1 /// KIR2DS2 /// KIR2DS3 /// KIR2DS4 /// KIR3DL3 /// KIR3DL3 /// KIR3DS1 (11738374_at) / RFU C1QL1 (11718748_at) / Fold change /veh C1QL1 (11718748_at) / RFU TMPRSS4 (11747572_a_at) / Fold change /veh TMPRSS4 (11747572_a_at) / RFU HAMP (11756126_x_at) / Fold change /veh HAMP (11756126_x_at) / RFU RNFT2 (11725882_a_at) / Fold change /veh RNFT2 (11725882_a_at) / RFU NR4A2 (11747474_a_at) / Fold change /veh NR4A2 (11747474_a_at) / RFU ABCC12 (11746883_a_at) / Fold change /veh ABCC12 (11746883_a_at) / RFU TMEM136 (11760407_x_at) / Fold change /veh TMEM136 (11760407_x_at) / RFU CLDN22 /// WWC2 (11732394_at) / Fold change /veh CLDN22 /// WWC2 (11732394_at) / RFU HLA-DPB1 (11760878_x_at) / Fold change /veh HLA-DPB1 (11760878_x_at) / RFU SPINT1 (11716480_a_at) / Fold change /veh SPINT1 (11716480_a_at) / RFU GAP43 (11754022_s_at) / Fold change /veh GAP43 (11754022_s_at) / RFU A4GNT (11735810_at) / Fold change /veh A4GNT (11735810_at) / RFU PRB3 (11715151_x_at) / Fold change /veh PRB3 (11715151_x_at) / RFU TUBB4B (11761932_at) / Fold change /veh TUBB4B (11761932_at) / RFU CAPN14 (11732068_a_at) / Fold change /veh CAPN14 (11732068_a_at) / RFU TMCC2 (11721928_a_at) / Fold change /veh TMCC2 (11721928_a_at) / RFU IRGQ (11745062_a_at) / Fold change /veh IRGQ (11745062_a_at) / RFU FAM174B (11720279_a_at) / Fold change /veh FAM174B (11720279_a_at) / RFU TMPRSS4 (11748680_a_at) / Fold change /veh TMPRSS4 (11748680_a_at) / RFU FAM212B (11763350_a_at) / Fold change /veh FAM212B (11763350_a_at) / RFU PLEKHG5 (11743358_a_at) / Fold change /veh PLEKHG5 (11743358_a_at) / RFU ZSCAN30 (11745921_a_at) / Fold change /veh ZSCAN30 (11745921_a_at) / RFU CMKLR1 (11741424_a_at) / Fold change /veh CMKLR1 (11741424_a_at) / RFU LOC101060620 /// MAPK8IP1 (11723275_at) / Fold change /veh LOC101060620 /// MAPK8IP1 (11723275_at) / RFU SPTSSB (11747773_x_at) / Fold change /veh SPTSSB (11747773_x_at) / RFU PRSS12 (11739890_at) / Fold change /veh PRSS12 (11739890_at) / RFU BIN1 (11741810_x_at) / Fold change /veh BIN1 (11741810_x_at) / RFU WNT11 (11732464_a_at) / Fold change /veh WNT11 (11732464_a_at) / RFU C10orf10 (11716521_a_at) / Fold change /veh C10orf10 (11716521_a_at) / RFU C5orf56 (11738089_at) / Fold change /veh C5orf56 (11738089_at) / RFU CYB561 (11721691_x_at) / Fold change /veh CYB561 (11721691_x_at) / RFU ANKRD19P (11752326_a_at) / Fold change /veh ANKRD19P (11752326_a_at) / RFU OR2T12 /// OR2T33 /// OR2T8 (11738714_s_at) / Fold change /veh OR2T12 /// OR2T33 /// OR2T8 (11738714_s_at) / RFU VCAN (11748164_a_at) / Fold change /veh VCAN (11748164_a_at) / RFU JSRP1 (11732532_at) / Fold change /veh JSRP1 (11732532_at) / RFU KRTAP10-11 (11738290_x_at) / Fold change /veh KRTAP10-11 (11738290_x_at) / RFU MYO3A (11730013_a_at) / Fold change /veh MYO3A (11730013_a_at) / RFU EBF3 (11725865_a_at) / Fold change /veh EBF3 (11725865_a_at) / RFU CAMK2N1 (11719241_x_at) / Fold change /veh CAMK2N1 (11719241_x_at) / RFU C5orf56 (11738088_a_at) / Fold change /veh C5orf56 (11738088_a_at) / RFU OLFML3 (11715873_a_at) / Fold change /veh OLFML3 (11715873_a_at) / RFU LOC100653217 /// NTM (11731650_a_at) / Fold change /veh LOC100653217 /// NTM (11731650_a_at) / RFU MAPK11 (11762145_a_at) / Fold change /veh MAPK11 (11762145_a_at) / RFU FIZ1 (11724087_x_at) / Fold change /veh FIZ1 (11724087_x_at) / RFU OASL (11726364_x_at) / Fold change /veh OASL (11726364_x_at) / RFU SOX15 (11748057_x_at) / Fold change /veh SOX15 (11748057_x_at) / RFU CD79A (11719716_a_at) / Fold change /veh CD79A (11719716_a_at) / RFU HIST1H1D (11736915_at) / Fold change /veh HIST1H1D (11736915_at) / RFU CASKIN2 (11723855_a_at) / Fold change /veh CASKIN2 (11723855_a_at) / RFU LOC730098 (11760151_x_at) / Fold change /veh LOC730098 (11760151_x_at) / RFU OR4N2 (11742367_at) / Fold change /veh OR4N2 (11742367_at) / RFU PRRT2 (11749266_a_at) / Fold change /veh PRRT2 (11749266_a_at) / RFU SNX32 (11753110_a_at) / Fold change /veh SNX32 (11753110_a_at) / RFU CDHR5 (11726645_a_at) / Fold change /veh CDHR5 (11726645_a_at) / RFU RCAN1 (11760418_a_at) / Fold change /veh RCAN1 (11760418_a_at) / RFU FAM167A (11723789_a_at) / Fold change /veh FAM167A (11723789_a_at) / RFU FAM26E (11764081_at) / Fold change /veh FAM26E (11764081_at) / RFU ISYNA1 (11749810_s_at) / Fold change /veh ISYNA1 (11749810_s_at) / RFU ACY1 (11761880_at) / Fold change /veh ACY1 (11761880_at) / RFU 11764098_at / Fold change /veh 11764098_at / RFU SAMD14 (11745864_x_at) / Fold change /veh SAMD14 (11745864_x_at) / RFU NPB (11741838_a_at) / Fold change /veh NPB (11741838_a_at) / RFU TMPRSS6 (11731388_a_at) / Fold change /veh TMPRSS6 (11731388_a_at) / RFU KRTAP10-2 (11738614_at) / Fold change /veh KRTAP10-2 (11738614_at) / RFU ARHGAP8 /// PRR5-ARHGAP8 (11727945_x_at) / Fold change /veh ARHGAP8 /// PRR5-ARHGAP8 (11727945_x_at) / RFU KRTAP5-7 /// NADSYN1 (11734609_at) / Fold change /veh KRTAP5-7 /// NADSYN1 (11734609_at) / RFU RASL12 (11751679_a_at) / Fold change /veh RASL12 (11751679_a_at) / RFU CDKN2B (11736163_a_at) / Fold change /veh CDKN2B (11736163_a_at) / RFU PRF1 (11729649_at) / Fold change /veh PRF1 (11729649_at) / RFU, ZNF638 /// ZNF638-IT1 / Fold change vs veh, ZNF638 /// ZNF638-IT1 / RFU, PANK3 / Fold change vs veh, PANK3 / RFU, SH3YL1 / Fold change vs veh, SH3YL1 / RFU, ZEB2 / Fold change vs veh, ZEB2 / RFU, NRIP1 / Fold change vs veh, NRIP1 / RFU, PTTG1IP / Fold change vs veh, PTTG1IP / RFU, CAPN2 / Fold change vs veh, CAPN2 / RFU, MED14 / Fold change vs veh, MED14 / RFU, SNORA58 / Fold change vs veh, SNORA58 / RFU, C1orf63 / Fold change vs veh, C1orf63 / RFU, LRRFIP1 / Fold change vs veh, LRRFIP1 / RFU, NDUFAF7 / Fold change vs veh, NDUFAF7 / RFU, SLC12A2 / Fold change vs veh, SLC12A2 / RFU, IBTK / Fold change vs veh, IBTK / RFU, ESF1 / Fold change vs veh, ESF1 / Fold change vs veh, TMEM50B / RFU, TAOK1 / Fold change vs veh, TAOK1 / RFU, ACBD3 / Fold change vs veh, ACBD3 / RFU, TMA16 / Fold change vs veh, TMA16 / RFU, RWDD3 / Fold change vs veh, RWDD3 / RFU, BCAT1 / Fold change vs veh, BCAT1 / RFU, EDEM3 / Fold change vs veh, EDEM3 / RFU, TMEM33 / Fold change vs veh, TMEM33 / RFU, WDR75 / Fold change vs veh, WDR75 / RFU, AHCTF1 / Fold change vs veh, AHCTF1 / RFU, TFRC / Fold change vs veh, TFRC / RFU, ZDHHC17 / Fold change vs veh, ZDHHC17 / RFU, NOM1 / Fold change vs veh, NOM1 / RFU, ARL8B / Fold change vs veh, ARL8B / RFU, ZBTB11 / Fold change vs veh, ZBTB11 / RFU, TAMM41 / Fold change vs veh, TAMM41 / RFU, KIAA1704 /// LOC100996395 / Fold change vs veh, KIAA1704 /// LOC100996395 / RFU, ING1 / Fold change vs veh, ING1 / RFU, TRMT61B / Fold change vs veh, TRMT61B / RFU, FUBP3 / Fold change vs veh, FUBP3 / RFU, TP53 / Fold change vs veh, TP53 / RFU, TNKS2 / Fold change vs veh, TNKS2 / RFU, ZFP14 / Fold change vs veh, ZFP14 / RFU, ACTR2 / Fold change vs veh, ACTR2 / RFU, PPP3R1 / Fold change vs veh, PPP3R1 / RFU, PIK3R1 / Fold change vs veh, PIK3R1 / RFU, HNRNPA1 / Fold change vs veh, HNRNPA1 / RFU, RNF170 / Fold change vs veh, RNF170 / RFU, ZNF28 / Fold change vs veh, ZNF28 / RFU, RNGTT / Fold change vs veh, RNGTT / RFU, OGT / Fold change vs veh, OGT / RFU, BRD1 / Fold change vs veh, BRD1 / RFU, MARS / Fold change vs veh, MARS / RFU, ZNF655 / Fold change vs veh, ZNF655 / RFU, FAHD1 / Fold change vs veh, FAHD1 / RFU, BDP1 / Fold change vs veh, BDP1 / RFU, LRRCC1 / Fold change vs veh, LRRCC1 / RFU, ARID1A / Fold change vs veh, ARID1A / RFU, ZNF146 / Fold change vs veh, ZNF146 / RFU, ZNF330 / Fold change vs veh, ZNF330 / RFU, GPN3 / Fold change vs veh, GPN3 / RFU, C9orf123 / Fold change vs veh, C9orf123 / RFU, N4BP2L2 / Fold change vs veh, N4BP2L2 / RFU, ARFIP1 / Fold change vs veh, ARFIP1 / RFU, FAM179B / Fold change vs veh, FAM179B / RFU, BCL10 / Fold change vs veh, BCL10 / RFU, UHRF1BP1L / Fold change vs veh, UHRF1BP1L / RFU, BET1 / Fold change vs veh, BET1 / RFU, CNOT2 / Fold change vs veh, CNOT2 / RFU, ZNF268 / Fold change vs veh, ZNF268 / Fold change vs veh, ZNF507 / RFU, DGCR2 / Fold change vs veh, DGCR2 / RFU, WDSUB1 / Fold change vs veh, WDSUB1 / Fold change vs veh, HSP90B1 /// MIR3652 / RFU, ADSS / Fold change vs veh, ADSS / RFU, GK / Fold change vs veh, GK / RFU, ZNF148 / Fold change vs veh, ZNF148 / RFU, TAF9 / Fold change vs veh, TAF9 / RFU, SLC1A5 / Fold change vs veh, SLC1A5 / RFU, SLMO2 / Fold change vs veh, SLMO2 / RFU, ABCC4 / Fold change vs veh, ABCC4 / RFU, LOC101060439 /// RAP1B / Fold change vs veh, LOC101060439 /// RAP1B / RFU, RFX7 / Fold change vs veh, RFX7 / RFU, GTPBP10 / Fold change vs veh, GTPBP10 / RFU, CNEP1R1 / Fold change vs veh, CNEP1R1 / RFU, BIVM-ERCC5 /// ERCC5 / Fold change vs veh, BIVM-ERCC5 /// ERCC5 / RFU, ILF3 / Fold change vs veh, ILF3 / RFU 11762660_at / Fold change /veh 11762660_at / RFU VCAN (11757783_s_at) / Fold change /veh VCAN (11757783_s_at) / RFU DDX43 (11728927_at) / Fold change /veh DDX43 (11728927_at) / RFU KRT8 (11758188_x_at) / Fold change /veh KRT8 (11758188_x_at) / RFU NKD1 (11759106_at) / Fold change /veh NKD1 (11759106_at) / RFU SRD5A1 (11742802_a_at) / Fold change /veh SRD5A1 (11742802_a_at) / RFU TPSAB1 /// TPSB2 (11721975_s_at) / Fold change /veh TPSAB1 /// TPSB2 (11721975_s_at) / RFU GSTM3 (11746129_a_at) / Fold change /veh GSTM3 (11746129_a_at) / RFU IL23R (11737362_x_at) / Fold change /veh IL23R (11737362_x_at) / RFU TMEM51 (11727254_a_at) / Fold change /veh TMEM51 (11727254_a_at) / RFU PIWIL2 (11732686_x_at) / Fold change /veh PIWIL2 (11732686_x_at) / RFU ORM1 (11744905_x_at) / Fold change /veh ORM1 (11744905_x_at) / RFU CCDC152 (11743942_at) / Fold change /veh CCDC152 (11743942_at) / RFU ECM1 (11717891_a_at) / Fold change /veh ECM1 (11717891_a_at) / RFU IL23R (11748794_a_at) / Fold change /veh IL23R (11748794_a_at) / RFU TNFAIP8L3 (11732012_x_at) / Fold change /veh TNFAIP8L3 (11732012_x_at) / RFU MBOAT4 (11741988_at) / Fold change /veh MBOAT4 (11741988_at) / RFU 11764193_at / Fold change /veh 11764193_at / RFU TMEM53 (11763286_at) / Fold change /veh TMEM53 (11763286_at) / RFU MAGEB2 (11727129_at) / Fold change /veh MAGEB2 (11727129_at) / RFU TMEM200A (11744735_a_at) / Fold change /veh TMEM200A (11744735_a_at) / RFU CCDC152 (11751479_a_at) / Fold change /veh CCDC152 (11751479_a_at) / RFU FAM211A (11726209_a_at) / Fold change /veh FAM211A (11726209_a_at) / RFU RGS16 (11746705_a_at) / Fold change /veh RGS16 (11746705_a_at) / RFU VCAN (11755009_s_at) / Fold change /veh VCAN (11755009_s_at) / RFU RHOB (11743442_s_at) / Fold change /veh RHOB (11743442_s_at) / RFU RGS16 (11720943_a_at) / Fold change /veh RGS16 (11720943_a_at) / RFU RGS16 (11720944_at) / Fold change /veh RGS16 (11720944_at) / RFU, VPS4B / Fold change vs veh, VPS4B / RFU, CREB1 / Fold change vs veh, CREB1 / RFU, DNAJC13 / Fold change vs veh, DNAJC13 / RFU, GNAQ / Fold change vs veh, GNAQ / RFU, CDK5R1 / Fold change vs veh, CDK5R1 / RFU, ZRANB3 / Fold change vs veh, ZRANB3 / RFU, CUL4A / Fold change vs veh, CUL4A / RFU, CCNY / Fold change vs veh, CCNY / RFU, UFL1 / Fold change vs veh, UFL1 / RFU, COG3 / Fold change vs veh, COG3 / RFU, DIAPH2 / Fold change vs veh, DIAPH2 / RFU, SKA2 / Fold change vs veh, SKA2 / RFU, AFF3 / Fold change vs veh, AFF3 / RFU, LMF1 / Fold change vs veh, LMF1 / RFU, IPO11 / Fold change vs veh, IPO11 / RFU, DFFB / Fold change vs veh, DFFB / RFU, FOXP1 / Fold change vs veh, FOXP1 / RFU, CARD8 / Fold change vs veh, CARD8 / RFU, STRN3 / Fold change vs veh, STRN3 / RFU, ADK / Fold change vs veh, ADK / RFU, RASSF2 / Fold change vs veh, RASSF2 / RFU, WIPF1 / Fold change vs veh, WIPF1 / RFU, LARP1B / Fold change vs veh, LARP1B / RFU, RASA1 / Fold change vs veh, RASA1 / RFU, RB1 / Fold change vs veh, RB1 / RFU, PPFIA1 / Fold change vs veh, PPFIA1 / RFU, MAT2A / Fold change vs veh, MAT2A / RFU, CCT5 / Fold change vs veh, CCT5 / RFU, WDR92 / Fold change vs veh, WDR92 / RFU, CUX1 / Fold change vs veh, CUX1 / RFU, TTC7A / Fold change vs veh, TTC7A / RFU, TMEM135 / Fold change vs veh, TMEM135 / RFU, DEPTOR / Fold change vs veh, DEPTOR / RFU, CPM / Fold change vs veh, CPM / RFU, DNAJB6 / Fold change vs veh, DNAJB6 / RFU, CACNA2D3 / Fold change vs veh, CACNA2D3 / RFU, DTX4 / Fold change vs veh, DTX4 / RFU, TFCP2 / Fold change vs veh, TFCP2 / RFU, GMCL1 /// GMCL1P1 / Fold change vs veh, GMCL1 /// GMCL1P1 / RFU, AEBP2 / Fold change vs veh, AEBP2 / RFU, SNHG1 /// SNORD22 /// SNORD25 /// SNORD26 /// SNORD27 /// SNORD28 /// SNORD29 /// SNORD31 / Fold change vs veh, SNHG1 /// SNORD22 /// SNORD25 /// SNORD26 /// SNORD27 /// SNORD28 /// SNORD29 /// SNORD31 / Fold change (Aza/veh), C12orf56 (ProbeSet 11735607_a_at) / Fold change (ACY-1035/veh), C12orf56 (ProbeSet 11735607_a_at) / Fold change (Aza/veh), FGFR1OP (ProbeSet 11751329_s_at) / Fold change (ACY-1035/veh), FGFR1OP (ProbeSet 11751329_s_at) / Fold change (Aza/veh), VPS36 (ProbeSet 11739960_a_at) / Fold change (ACY-1035/veh), VPS36 (ProbeSet 11739960_a_at) / RFU SYPL1 (11715823_x_at) / Fold change /veh SYPL1 (11715823_x_at) / RFU IGFBP7 (11715501_s_at) / Fold change /veh IGFBP7 (11715501_s_at) / RFU REEP3 (11722064_at) / Fold change /veh REEP3 (11722064_at) / RFU IGLL1 (11728026_x_at) / Fold change /veh IGLL1 (11728026_x_at): dose or concentration left out as unconfirmed
# Settings: ProbeSet 11732277_a_at; LIST D
smiles,measurement,value
Nc1ccc(-c2cccs2)cc1NC(=O)c1ccc2c(c1)cc(C1CC1)n2CCN1CCOCC1 [ACY-1035],"Fold change vs veh, FOXP1",0.94
